Key:
[1] = tested on: A549; assay: cells; conditions: Homo sapiens, A549, 24 h
Description: Antiproliferative activity against human A549 cells assessed as inhibition of cell growth incubated for 24 hrs by MTT assay

[2] = biological target: Carbonic anhydrase 9 (Homo sapiens, UniProt Q16790); assay: Inhibition of human transmembrane carbonic anhydrase 9 using 4-nitrophenyl acetate as substrate assessed as inhibition constant by spectrophotometric analysis

| SMILES | IC50 [1] [µM] | Ki [2] [µM] |
| --- | --- | --- |
| COc1cccc2c1C(=O)c1c(O)c3c(c(O)c1C2=O)C[C@@](O)(C(=O)CO)C[C@@H]3O[C@H]1C[C@H](N)[C@H](O)[C@H](C)O1 [DOXORUBICIN] | 10.8 | – |
| NS(=O)(=O)c1ccc(-n2cc(COC(=O)c3ccc4c(c3)C(=O)N(c3cccc5ccccc35)C4=O)nn2)cc1 | 278 | 0.0253 |
| CCCCCCN1C(=O)c2ccc(C(=O)OCc3cn(-c4ccc(S(N)(=O)=O)cc4)nn3)cc2C1=O | 161 | 0.0752 |
| NS(=O)(=O)c1ccc(-n2cc(COC(=O)c3ccc4c(c3)C(=O)N(c3ccccc3)C4=O)nn2)cc1 | 300 | 0.0183 |
| CCCCN1C(=O)c2ccc(C(=O)OCc3cn(-c4ccc(S(N)(=O)=O)cc4)nn3)cc2C1=O | 199 | 0.035 |
| Cc1cccc(C)c1N1C(=O)c2ccc(C(=O)OCc3cn(-c4ccc(S(N)(=O)=O)cc4)nn3)cc2C1=O | 253 | 0.0245 |
| N#Cc1ccc(N2C(=O)c3ccc(C(=O)OCc4cn(-c5ccc(S(N)(=O)=O)cc5)nn4)cc3C2=O)cc1 | 266 | 0.0286 |
| NS(=O)(=O)c1ccc(-n2cc(COC(=O)c3ccc4c(c3)C(=O)N(c3cccc(F)c3)C4=O)nn2)cc1 | 231 | 0.0229 |
| NS(=O)(=O)c1ccc(-n2cc(COC(=O)c3ccc4c(c3)C(=O)N(Cc3ccc5c(c3)OCO5)C4=O)nn2)cc1 | 130 | 0.0239 |
| NS(=O)(=O)c1ccc(-n2cc(COC(=O)c3ccc4c(c3)C(=O)N(c3ccc(Cl)cc3)C4=O)nn2)cc1 | 352 | 0.0489 |
| NS(=O)(=O)c1ccc(-n2cc(COC(=O)c3ccc4c(c3)C(=O)N(c3ccccc3Cl)C4=O)nn2)cc1 | 290 | 0.0186 |
| NS(=O)(=O)c1ccc(-n2cc(COC(=O)c3ccc4c(c3)C(=O)N(c3ccccc3I)C4=O)nn2)cc1 | 258 | 0.0353 |
| CCCCCCCCN1C(=O)c2ccc(C(=O)OCc3cn(-c4ccc(S(N)(=O)=O)cc4)nn3)cc2C1=O | 235 | 0.05 |

Reference: ChEMBL document CHEMBL5236613, “Exploration of 1,2,3-triazole linked benzenesulfonamide derivatives as isoform selective inhibitors of human carbonic anhydrase” (Bioorg Med Chem, 2023)
